In patent publication US20240376138A1, “Crystal Forms, Preparation Method And Application Of Aryl Phosphine Oxide Compound” (Chengdu Di'Ao Jiuhong Pharmaceutical Factory, priority 2021, published 2024):
Marks after values point to notes of the source that are not given here.

Tests used:
[1] = tested on: BaF3 EML-4-ALK-L1196M xenograft tumor; experiment: Pharmacodynamic experiment in vivo, subcutaneous xenograft model; design: species or system BALB/c nude mouse
Protocol: The model used in this trial was an engineered BALB/c nude mouse subcutaneous xenograft model of BaF3 EML-4-ALK-L1196M cells. Suspension culture of engineered BaF3 cells were carried out in vitro. […] Cell passage was processed twice a week. When the number of cells reached the requirement, the cells were collected, counted, diluted into a tumor cell suspension with a concentration of 1×10^7/ml with PBS, and carried to the animal room in an ice box for direct injection and inoculation. A 1 mL syringe was used to take the above-mentioned prepared tumor cell suspension with a concentration of 1×10^7/ml, and the tumor cell suspension was injected subcutaneously into the left forelimb armpit of the dorsal side of the mouse, 0.25 mL for each inoculation site. When the average volume of tumors reached about 160 mm^3, the drug was administered for each group, 15 mice in the vehicle group and 10 mice in each of the other administration groups.
Mode and frequency of administration: oral gavage administration, the volume of administration was 10 mL/kg, and the model group was given an equal volume of vehicle. It was administered 1 time a day for 14 consecutive days.
The mental, active, eating and other general conditions of the mice were observed every day, and the body weight was measured 3 times a week, and the short diameter (a) and long diameter (b) of the tumor of each mouse were measured with vernier calipers 3 times a week, and the tumor volume was calculated according to the formula (a^2×b)/2. The relative tumor volume (RTV) was calculated from the measured calculated tumor volume, RTV=Vt/V0. Wherein V0 was the tumor volume at randomization (i.e., d0) and Vt was the tumor volume at each measurement (i.e., dn). The relative tumor proliferation rate of anti-tumor activity evaluation index was calculated according to the following formula: relative tumor proliferation rate T/C (%): […]
(Note: TRTV: RTV in the treatment group; CRTV: RTV in the model control group. According to the evaluation criteria for efficacy in the “Technical Guidelines for Non-clinical Research of Cytotoxic Antitumor Drugs” issued by the National Medical Products Administration of China, T/C %≤40% is effective).

[2] = Comparative experiment of hygroscopicity (Chinese Pharmacopoeia 2020); type: physicochemical; settings: dihydrate
Description: The description of hygroscopic characteristics and the definition of hygroscopic weight gain are as follows: • Deliquescence: absorbs sufficient amount of water to form a liquid; • Very hygroscopic: the weight gain by hygroscopy is not less than 15%; • Hygroscopic: the weight gain by hygroscopy is less than 15% but not less than 2%; • Slightly hygroscopic: the weight gain by hygroscopy is less than 2% but not less than 0.2%; and
Not or almost not hygroscopic: the weight gain by hygroscopy is less than 0.2% from hygroscopicity.

[3] = Stability test 1: open solvent atmosphere, XRPD; type: physicochemical; settings: room temperature
[4] = Stability test 3: long-term and accelerated conditions; type: physicochemical
[5] = Vacuum drying stability test; type: physicochemical
Solubility test = type: physicochemical; settings: Solution with pH = 6.8, 25° C.±2° C., dihydrate
[6] = Variable temperature XRPD of crystal form 1; type: physicochemical
Protocol: The crystalline form 1 was tested on a hot-stage XRPD detection instrument to test the XRPD patterns under different temperature conditions, as shown in FIG. 8.

[7] = Stability test 2: different temperature and humidity conditions, XRPD; type: physicochemical
[8] = High temperature and illumination stability test of crystal forms 1-3; type: physicochemical; settings: Illumination (illuminance: 5000Lx), Day 0 (Table 18-1)
[9] = 30 mg/kg oral gavage 1 time a day, Day 3
[10] = 30 mg/kg oral gavage 1 time a day, Day 5
[11] = 30 mg/kg oral gavage 1 time a day, Day 7
[12] = 30 mg/kg oral gavage 1 time a day, Day 10
[13] = 30 mg/kg oral gavage 1 time a day, Day 12
[14] = 30 mg/kg oral gavage 1 time a day, Day 14
[15] = 30 mg/kg oral gavage once a day, D14
[16] = 40 mg/kg oral gavage 1 time a day, Day 3
[17] = 40 mg/kg oral gavage 1 time a day, Day 5
[18] = 40 mg/kg oral gavage 1 time a day, Day 7
[19] = 40 mg/kg oral gavage 1 time a day, Day 10
[20] = 40 mg/kg oral gavage 1 time a day, Day 12
[21] = 40 mg/kg oral gavage 1 time a day, Day 14
[22] = 40 mg/kg oral gavage once a day, D14
[23] = 6 months under long-term and accelerated conditions

With `COc1cc(N2CCC(N3CCN(C)CC3)CC2)c(C)cc1Nc1ncc(Br)c(Nc2ccc(C)cc2P(C)(C)=O)n1` [Crystal form 1, (2-((5-bromo-2-((2-methoxy-5-methyl-4-(4-(4-methylpiperazin-1-yl)piperidin-1-yl)phenyl)amino)pyrimidin-4-yl)amino)-5-methylphenyl)dimethylphosphorus oxide dihydrate] the Tumor volume ([1]; 30 mg/kg oral gavage 1 time a day, Day 0) was 160 mm^3, the “Relative tumor proliferation rate T/C” value [1, 9] was 28.53▴▴ % and the Tumor volume [1, 9] was 102 mm^3. For the same compound, the “Relative tumor proliferation rate T/C” value [1, 10] was 16.41▴▴ %, the Tumor volume [1, 10] was 89 mm^3 and the “Relative tumor proliferation rate T/C” value [1, 11] was 8.23▴▴ %. For the same compound, the Tumor volume [1, 11] was 75 mm^3, the “Relative tumor proliferation rate T/C” value [1, 12] was 6.61▴▴ % and the Tumor volume [1, 12] was 91 mm^3. For the same compound, the “Relative tumor proliferation rate T/C” value [1, 13] was 6.34▴▴ %, the Tumor volume [1, 13] was 109 mm^3 and the “Relative tumor proliferation rate T/C” value [1, 14] was 4.85▴▴ %. For the same compound, the Tumor volume [1, 14] was 101 mm^3, the Tumor volume [1, 15] was 101 mm^3 and the “relative tumor proliferation rate T/C %” value [1, 15] was 4.85%. For the same compound, the Tumor volume ([1]; 40 mg/kg oral gavage 1 time a day, Day 0) was 159 mm^3, the “Relative tumor proliferation rate T/C” value [1, 16] was 23.88▴▴ % and the Tumor volume [1, 16] was 83 mm^3. For the same compound, the “Relative tumor proliferation rate T/C” value [1, 17] was 10.09▴▴ %, the Tumor volume [1, 17] was 52 mm^3 and the “Relative tumor proliferation rate T/C” value [1, 18] was 5.93▴▴ %. For the same compound, the Tumor volume [1, 18] was 49 mm^3, the “Relative tumor proliferation rate T/C” value [1, 19] was 4.45▴▴ % and the Tumor volume [1, 19] was 60 mm^3. The “Relative tumor proliferation rate T/C” value [1, 20] was 3.28▴▴ %, the Tumor volume [1, 20] was 55 mm^3 and the “Relative tumor proliferation rate T/C” value [1, 21] was 2.34▴▴ %. For the same compound, the Tumor volume [1, 21] was 49 mm^3, the Tumor volume [1, 22] was 49 mm^3 and the “relative tumor proliferation rate T/C %” value [1, 22] was 2.34%. For the same compound, the “effect on the growth of BaF3 EML-4-ALK-L1196M xenograft tumor” value ([1]; oral gavage once a day for 14 days, crystal form 1 30 and 40 mg/kg, compound 1 of WO2021073498A1 30.2 and 40.2 mg/kg) was “significantly inhibit the growth”, the Hygroscopicity ([2]; class by weight gain after 24 h) was “Not or almost not hygroscopic (the weight gain by hygroscopy is less than 0.2% from hygroscopicity)” and the “Weight gain % after 24 h” value ([2]; hygroscopicity test, 24 h) was 0.16%. The “Analysis of result (XRPD) Day 4” value ([3]; Acetone atmosphere) was “Crystal form 1”, the “Analysis of result (XRPD) Day 6” value ([3]; Acetone atmosphere) was “Crystal form 1” and the “Analysis of result (XRPD) Day 4” value ([3]; Ethanol atmosphere) was “Crystal form 1”. For the same compound, the “Analysis of result (XRPD) Day 6” value ([3]; Ethanol atmosphere) was “Crystal form 1”, the “Analysis of result (XRPD) Day 4” value ([3]; Ethyl acetate atmosphere) was “Crystal form 1” and the “Analysis of result (XRPD) Day 6” value ([3]; Ethyl acetate atmosphere) was “Crystal form 1”. The “Analysis of result (XRPD) Day 4” value ([3]; Tetrahydrofuran atmosphere) was “Crystal form 1”, the “Analysis of result (XRPD) Day 6” value ([3]; Tetrahydrofuran atmosphere) was “Crystal form 1” and the maximum single impurity [4, 23] was no more than 0.07%. The “total impurities after 6 months of placement compared with Day 0” value [4, 23] was “had not increased”, the Traits ([4]; Acceleration (40° C. ± 2° C., 75% RH ± 10% RH), Day 0) was “off-white” and the Traits ([4]; Acceleration (40° C. ± 2° C., 75% RH ± 10% RH), Month 6) was “off-white”. The “Crystal form (XRPD)” value ([4]; Acceleration (40° C. ± 2° C., 75% RH ± 10% RH, exposed to air and away from light), Day 0) was “form 1”, the “Crystal form (XRPD)” value ([4]; Acceleration (40° C. ± 2° C., 75% RH ± 10% RH, exposed to air and away from light), Day 10) was “form 1” and the “Crystal form (XRPD)” value ([4]; Acceleration (40° C. ± 2° C., 75% RH ± 10% RH, exposed to air and away from light), Month 6) was “form 1”. The Traits ([4]; Long-term (25° C. ± 2° C., 65% RH ± 10% RH), Day 0, dihydrate) was “off-white”, the Traits ([4]; Long-term (25° C. ± 2° C., 65% RH ± 10% RH), Month 6) was “off-white” and the “Crystal form (XRPD)” value ([4]; Long-term (25° C. ± 2° C., 65% RH ± 10% RH, exposed to air and away from light), Day 0) was “form 1”. For the same compound, the “Crystal form (XRPD)” value ([4]; Long-term (25° C. ± 2° C., 65% RH ± 10% RH, exposed to air and away from light), Day 10) was “form 1”, the “Crystal form (XRPD)” value ([4]; Long-term (25° C. ± 2° C., 65% RH ± 10% RH, exposed to air and away from light), Month 6) was “form 1” and the “crystal form after vacuum drying” value ([5]; vacuum dried at 35° C.) was “had not been transformed”. The “moisture content after vacuum drying” value ([5]; vacuum drying at 35° C. for 24 h) was 5.26%, the “Solubility for 24 h” value (Solubility test) was 3260 µg/mL and the “crystal form on hot-stage XRPD” value ([6]; 50° C.) was “remained unchanged”. For the same compound, the “crystal form on hot-stage XRPD” value ([6]; 80° C. and 120° C.) was “lost two moles of crystal water”, the “Analysis of result of Day 4 (XRPD)” value ([7]; 25° C.-60% RH) was “Crystal form 1” and the “Analysis of result of Day 6 (XRPD)” value ([7]; 25° C.-60% RH) was “Crystal form 1”. For the same compound, the “Analysis of result of Day 11 (XRPD)” value ([7]; 25° C.-60% RH) was “Crystal form 1”, the “Analysis of result of Day 4 (XRPD)” value ([7]; 40° C.-75% RH) was “Crystal form 1” and the “Analysis of result of Day 6 (XRPD)” value ([7]; 40° C.-75% RH) was “Crystal form 1”. The “Analysis of result of Day 11 (XRPD)” value ([7]; 40° C.-75% RH) was “Crystal form 1”, the “Analysis of result of Day 4 (XRPD)” value ([7]; RT-12% RH) was “Crystal form 1” and the “Analysis of result of Day 6 (XRPD)” value ([7]; RT-12% RH) was “Crystal form 1”. The “Analysis of result of Day 11 (XRPD)” value ([7]; RT-12% RH) was “Crystal form 1”, the “Analysis of result of Day 4 (XRPD)” value ([7]; RT-58% RH) was “Crystal form 1” and the “Analysis of result of Day 6 (XRPD)” value ([7]; RT-58% RH) was “Crystal form 1”. For the same compound, the “Analysis of result of Day 11 (XRPD)” value ([7]; RT-58% RH) was “Crystal form 1”, the “Analysis of result of Day 4 (XRPD)” value ([7]; RT-97% RH) was “Crystal form 1” and the “Analysis of result of Day 6 (XRPD)” value ([7]; RT-97% RH) was “Crystal form 1”. For the same compound, the “Analysis of result of Day 11 (XRPD)” value ([7]; RT-97% RH) was “Crystal form 1” and the Traits [8] was “off-white”.
